This is an account of results in patent publication US20250214993A1, “AROMATIC RING COMPOUND AND USE THEREOF” (SHANGHAI SHIJIANG BIOTECHNOLOGY CO., LTD, priority 2022, published 2025).

Where two headings read alike, the source gives them in different places.

The test system of one test is Con-NCI-H82 cell. Put plainly: Cell viability (Promega CellTiter-Glo, intracellular ATP), IC50 on Con-NCI-H82 cell. Type of test: cell-based. The note with it: Homo sapiens; normal untreated NCI-H82 cell (control). In a few lines:
(§1)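 Con-NCI-H82 cells and NCI-H82 cells overexpressing NNMT via a viral vector were grown in RPMI1640 with 10% FBS. Viability was read as intracellular ATP by CellTiter-Glo luminescence, giving IC50.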

The next test deals with mPTP-inactive Daoy cell. Put plainly: Cell viability (Promega CellTiter-Glo), IC50 on mPTP-inactive Daoy cell (PPIF shRNA). It counts as cell-based. The note with it: Homo sapiens; Daoy cell transfected with PPIF shRNA vector. Background: In ATP-based viability assays light output follows the ATP content of the culture.
The next test concerns ov-NNMT NCI-H82 cell. Put plainly: Cell viability (Promega CellTiter-Glo, intracellular ATP), IC50 on NNMT-overexpressing NCI-H82 cell. As to conditions: Homo sapiens; NCI-H82 cell overexpressing NNMT protein. It counts as cell-based. In a few lines: as §1
The subject of a further test is mPTP-active Daoy cell. The test can be described thus: Cell viability (Promega CellTiter-Glo), IC50 on mPTP-active Daoy cell. Type of test: cell-based. As to conditions: Homo sapiens; Daoy cell transfected with empty virus vector.
Test [1] relates to mitochondria permeability transition pore (mPTP). As to conditions: Daoy cell with PPIF shRNA vector; CsA −, H2O2 +; untreated = 100.
Test [2] has the same test system. Put plainly: Mitochondria membrane potential difference by TMRM in Daoy cell. It counts as cell-based, human. As to conditions: CsA −, H2O2 +, untreated = 100.
Test [3] has the same test system. It counts as cell-based, human. As to conditions: Daoy cell with empty virus vector; CsA −, H2O2 +; untreated = 100.

A word on the IC50: it is the concentration that inhibits the measured activity by half. A higher IC50 goes with weaker potency in that assay. `Cn1cc(Cc2ccccc2)c2cc[n+](C3CCc4ccc(C(F)(F)F)cc4C3=O)cc21` (centres unmarked) [AB27338]: the IC50 with Con-NCI-H82 cell is 0.391 µM; with mPTP-inactive Daoy cell, 2.09 µM; in the test with ov-NNMT NCI-H82 cell it was 2.36 µM; in the test on mPTP-active Daoy cell it was 6.62 µM.
For `O=C1c2sccc2CCC1n1ccc2c[n+](Cc3ccccc3)ccc21` (centres unmarked) [AB27345], in that order: 0.076 µM, 2.04 µM, 0.904 µM and 6.69 µM.
With `O=C1c2cc(F)ccc2CCC1[n+]1cnc2c(ccn2Cc2ccccc2)c1` (centres unmarked) [AB27355], the concentration for half-maximal inhibition (IC50) in the test with Con-NCI-H82 cell was found to be 0.121 µM; in the test on mPTP-inactive Daoy cell, 1.17 µM; in the test with ov-NNMT NCI-H82 cell it was 1.02 µM; in the test on mPTP-active Daoy cell, 5.92 µM.
Taken in the same sequence, the figures for `O=C1c2cc(F)ccc2CCC1[n+]1ccc2c(ccn2Cc2ccccc2)c1` (centres unmarked) [AB27356] were 0.13 µM, 0.94 µM, 1.74 µM and 5.54 µM.
Consider `Cc1cc2c[n+](Cc3ccccc3)ccc2n1CC(=O)c1cccc(OC(F)(F)F)c1` [AB27455], for which the IC50 with Con-NCI-H82 cell was 0.022 µM; with mPTP-inactive Daoy cell it was 0.11 µM; in the test with ov-NNMT NCI-H82 cell it was 0.265 µM; with mPTP-active Daoy cell it was 0.36 µM.
Taken in the same sequence, the figures for `Cc1cc2c[n+](Cc3ccccc3)ccc2n1CC(=O)c1cccc(C(F)(F)F)c1` [AB27456] were 0.022 µM, 0.13 µM, 0.383 µM and 0.38 µM.
For `Cc1cn(CC(=O)c2cccc(OC(F)(F)F)c2)c2cc[n+](Cc3ccccc3)cc12` [AB27457], in that order: 0.417 µM, 2.16 µM, 6.61 µM and 8.61 µM.
Taken in the same sequence, the figures for `Cc1cn(CC(=O)c2cccc(C(F)(F)F)c2)c2cc[n+](Cc3ccccc3)cc12` [AB27458] were 0.748 µM, 3.01 µM, 7.72 µM and 10.3 µM.
With `Cc1cn(C2CCc3ccc(F)cc3C2=O)c2cc[n+](C(C)c3ccccc3)cc12` (centres unmarked) [AB27459], the IC50 with Con-NCI-H82 cell was 0.086 µM; in the test with mPTP-inactive Daoy cell, 0.84 µM; with ov-NNMT NCI-H82 cell it was 1.24 µM; with mPTP-active Daoy cell, 2.43 µM.
Taken in the same sequence, the figures for `Cc1cn(CC(=O)c2ccc(C(F)(F)F)cc2)c2cc[n+](Cc3ccccc3)cc12` [AB27463] were 2.06 µM, 4.76 µM, 10.6 µM and 10.6 µM.
With `Cc1cn(Cc2ccccc2)c2cc[n+](C3CCc4ccc(F)cc4C3=O)cc12` (centres unmarked) [AB27470], the IC50 was 0.112 µM in the test on Con-NCI-H82 cell, 0.93 µM in the test on mPTP-inactive Daoy cell, 2.43 µM in the test on ov-NNMT NCI-H82 cell and 3.23 µM in the test with mPTP-active Daoy cell.
Take `CC(c1ccccc1)n1cc2cc[n+](C3CCc4ccc(Cl)cc4C3=O)cc2c1` (centres unmarked) [AB27481]: the 50% inhibitory concentration (IC50) amounted to 0.228 µM with Con-NCI-H82 cell, 0.65 µM with mPTP-inactive Daoy cell, 2.73 µM in the test with ov-NNMT NCI-H82 cell and 2.72 µM with mPTP-active Daoy cell.
In the case of `Cc1c(Cl)c2c[n+](Cc3ccccc3)ccc2n1CC(=O)c1cccc(OC(F)(F)F)c1` [AB27483], the IC50 was 1.16 µM in the test on Con-NCI-H82 cell, 2.08 µM in the test on mPTP-inactive Daoy cell, 7.24 µM in the test with ov-NNMT NCI-H82 cell and 8.24 µM with mPTP-active Daoy cell.
For `O=C(Cn1c(Cl)cc2c[n+](Cc3ccccc3)ccc21)c1cccc(OC(F)(F)F)c1` [AB27486], in that order: 0.034 µM, 0.28 µM, 0.489 µM and 0.58 µM.
Regarding `O=C(Cn1c(Cl)cc2c[n+](Cc3ccccc3)ccc21)c1cccc(C(F)(F)F)c1` [AB27487], the IC50 in the test on Con-NCI-H82 cell came to 0.031 µM; with mPTP-inactive Daoy cell, 0.22 µM; in the test with ov-NNMT NCI-H82 cell, 0.496 µM; in the test on mPTP-active Daoy cell, 0.57 µM.
For `O=C(Cn1c(Br)cc2c[n+](Cc3ccccc3)ccc21)c1cccc(OC(F)(F)F)c1` [AB27489], in that order: 0.023 µM, 0.17 µM, 0.287 µM and 0.37 µM.
As for `Cc1c(C)n(CC(=O)c2cccc(OC(F)(F)F)c2)c2cc[n+](Cc3ccccc3)cc12` [AB27492], the half-maximal inhibitory concentration (IC50) came out at 0.174 µM in the test with Con-NCI-H82 cell, 1.21 µM with mPTP-inactive Daoy cell, 1.49 µM in the test with ov-NNMT NCI-H82 cell and 3.75 µM in the test on mPTP-active Daoy cell.
For `O=C(Cn1ncc2c[n+](Cc3ccccc3)ccc21)c1cccc(OC(F)(F)F)c1` [AB27498], in that order: 2.18 µM, 1.96 µM, 11 µM and 9.89 µM.
For `O=C1c2cc(Cl)ccc2CCC1n1ncc2c[n+](Cc3ccccc3)ccc21` (centres unmarked) [AB27500], in that order: 0.122 µM, 0.62 µM, 0.904 µM and 3.18 µM.
With `O=C1c2cc(Cl)ccc2CCC1n1cnc2c[n+](Cc3ccccc3)ccc21` (centres unmarked) [AB31704], the IC50 in the test with Con-NCI-H82 cell is 0.264 µM; in the test on mPTP-inactive Daoy cell it was 0.77 µM; with ov-NNMT NCI-H82 cell, 3.19 µM; in the test with mPTP-active Daoy cell it was 3.69 µM.
For `O=C1c2cc(F)ccc2CCC1n1ncc2c[n+](Cc3ccccc3)ccc21` (centres unmarked) [AB31773], in that order: 0.11 µM, 0.49 µM, 1.81 µM and 2.98 µM.
With `O=C1c2cc(C(F)(F)F)ccc2CCC1n1ncc2c[n+](Cc3ccccc3)ccc21` (centres unmarked) [AB31774], the IC50 stood at 0.97 µM with Con-NCI-H82 cell, 1.53 µM in the test with mPTP-inactive Daoy cell, 7.92 µM in the test on ov-NNMT NCI-H82 cell and 9.92 µM with mPTP-active Daoy cell.
Regarding `O=C1c2cc(OC(F)(F)F)ccc2CCC1n1ncc2c[n+](Cc3ccccc3)ccc21` (centres unmarked) [AB31775], the IC50 was 0.124 µM in the test with Con-NCI-H82 cell, 1.39 µM in the test on mPTP-inactive Daoy cell, 2.09 µM in the test with ov-NNMT NCI-H82 cell and 5.38 µM with mPTP-active Daoy cell.
For `Cc1ccc2c(c1)CCC(n1ncc3c[n+](Cc4ccccc4)ccc31)C2=O` (centres unmarked) [AB31777], in that order: 0.128 µM, 1.23 µM, 1.99 µM and 6.99 µM.
Turning to `Nc1cc[n+](CC(=O)c2ccccc2)cc1` [AB36527], the concentration for half-maximal inhibition (IC50) in the test on Con-NCI-H82 cell amounted to 39.7 µM; in the test on mPTP-inactive Daoy cell, 40.9 µM; with ov-NNMT NCI-H82 cell it was 36.5 µM; in the test with mPTP-active Daoy cell it was 39.1 µM.
Taken in the same sequence, the figures for `Nc1cc[n+](CC(=O)c2ccc(OC(F)(F)F)cc2)cc1` [AB36528] were 19.5 µM, 17.9 µM, 19 µM and 15.7 µM.
Regarding `OO` [Compound H2O2, H2O2], the “Relative TMRM signal intensity (%), mean value” in test [1] came to 95%; in test [2] it was 82%; in test [3] it was 79%.
